Results published in patent publication US6001331A, “Method of imaging amyloid deposits” (Warner-Lambert Company, priority 1998, dated 1999).
Read-outs that look alike come from different tables or passages of the source.

Assays:
[1] = molecular target: T1, βA(1-40) amyloid aggregates (Homo sapiens, UniProt P05067); assay: Competition assay with Thioflavin T (ThT) for binding to β(1-40) amyloid aggregates, fluorescence 96-well plate
T1 construct: lyophilized β(1-40) protein powder (which may be purchased from BACHEM); purchased BACHEM
T1 sequence (P05067 672-711 limits assumed): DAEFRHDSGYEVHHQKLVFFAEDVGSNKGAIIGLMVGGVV
Description: Amyloid aggregates containing β(1-40) protein can also be made by methods well known to those skilled in the art. See, for example, Burdick D., Soreghan B., Kwon M., Kosmoski J., Knauer M., Henschen A., Yates J., Cotman C., and Glabe C. Assembly and aggregation properties of synthetic Alzheimer's A4/β amyloid peptide analogs. J. Biol. Chem., 267:546-554 (1992), which is hereby incorporated by reference. Briefly, lyophilized β(1-40) protein powder (which may be purchased from BACHEM) was dissolved at 10 mg/mL in hexafluoro-2-propanol and subsequently diluted to 500 μg/mL in 25 mM sodium phosphate buffer, pH 6 to induce the α-helix to β-sheet transition resulting in aggregate formation.
(§1) The ability of compounds of Formula I to compete with Thioflavin T (ThT) for binding to amyloid aggregates was measured using fluorescence in a 96-well fluorescence plate assay. As a compromise between sensitivity and signal and to facilitate comparisons between different amyloid fibrils, ThT is present at a concentration equal to the Kmapp of the particular amyloid fibril type and fibril concentrations yielding a similar fluorescence intensity are used. Insulin: 0.5 μM ThT, 2 μg per well. β(1-40): 20 μM ThT, 5 μg/well. All solutions are in 25 mM sodium phosphate buffer, pH 6.0, and the assay is performed at room temperature.
(§2) Using a multichannel pipettor, 100 μL of dilutions of the compound to be tested (0.001-30 μM final concentration in 3-fold steps) are placed in the bottom of Corning U-well polystyrene plates (Corning Company, Corning, N.Y.). 50 μL of ThT are then added to each well. The amyloid fibrils are then added to each well in a volume of 100 μL rapidly to mix the well contents. The plates are read within 5 to 30 minutes in a Millipore Cytofluor 2350 96-well fluorescence plate reader using an excitation filter of 440 nm (20 nm bandpass) and an emission filter of 485 nm (20 nm bandpass). ThT dye blanks were used to correct for the minimal fluorescence background which are subtracted from all data.
(§3) Results are expressed as % maximal fluorescence (no competing compound). […]

[2] = molecular target: Insulin amyloid aggregates; assay: Competition assay with Thioflavin T (ThT) for binding to insulin amyloid aggregates, fluorescence 96-well plate; conditions: 0.5 μM ThT, 2 μg per well fibrils, 25 mM sodium phosphate pH 6.0, room temperature
Procedure: Burke M. J. and Rougevie M. A., Cross-β Protein Structures. I. Insulin Fibrils. […] Briefly, lyophilized insulin protein powder dissolved at 10 mg/mL in 50 mM HCl was alternately heated to 95° C. and frozen in dry ice to form amyloid aggregates.
as §1
as §2, with “The plates are read within 5 to 30 minutes in a Millipore Cytofluor 2350 96-well fluorescence plate reader using an excitation filter of 440 nm (20 nm bandpass) and an emission filter of 485 nm (20 nm bandpass).” left out
as §3

[3] = 20 μM ThT, 5 μg/well fibrils, 25 mM sodium phosphate pH 6.0, room temperature, read-out: βA(1-40), IC50

IC50 [1, 3] [nM]	IC50 [2] [nM]	SMILES	IC50 [1] [nM]
140	52	CN(C)c1ccc(/C=C/c2sc3ccccc3[n+]2CCCOCc2ccccc2)cc1 [Example 34, (E)-3-(3-Benzyloxypropyl)-2-[2-(4-dimethylaminophenyl)vinyl]benzothiazol-3-ium iodide]	–
3200	700	COc1ccc2nc(/N=N/c3ccc(N(C)C)cc3)sc2c1 [Example 49, 2-[[4-(Dimethylamino)phenyl]azo]-6-methoxybenzothiazole]	–
240	34	CN(C)c1ccc(/C=C/c2sc3ccccc3[n+]2Cc2ccc(-c3ccccc3)cc2)cc1 [Example 26, (E)-3-Biphenyl-4-ylmethyl-2-[2-(4-dimethylaminophenyl)vinyl]benzothiazol-3-ium iodide]	–
140	40	CCCCCCC[n+]1c(/C=C/c2ccc(N(C)C)cc2)sc2cc(OC)ccc21 [Example 20, (E)-2-[2-(4-Dimethylaminophenyl)vinyl]-3-heptyl-6-methoxybenzothiazol-3-ium iodide]	–
140	120	CCCCCCC[n+]1c(/C=C/c2ccc(N(CC)CC)cc2)sc2ccccc21 [Example 44, (E)-2-[2-(4-Diethylaminophenyl)vinyl]-3-heptylbenzothiazol-3-ium iodide]	–
> 100000	100000	CN(C)c1ccc(/C=C/c2nc3cc(Cl)ccc3s2)cc1 [Example 1, (E)-{4-[2-(5-Chlorobenzothiazol-2-yl)vinyl]phenyl}dimethylamine]	–
1300	1300	CN(C)c1ccc(/N=N/c2nc3ccc(Cl)cc3s2)cc1 [Example 50, 6-Chloro-2-[[4-(dimethylamino)phenyl]azo]benzothiazole]	–
160	27	CCCC[n+]1c(/C=C/c2ccc(N(C)C)cc2)sc2ccccc21 [Example 11, (E)-2-[2-(4-Dimethylaminophenyl)vinyl]-3-butylbenzothiazol-3-ium iodide]	–
400	6	CC[n+]1c(/C=C/c2ccc(N(C)C)cc2)sc2ccccc21 [Example 7, (E)-2-[2-(4-Dimethylaminophenyl)vinyl]-3-ethylbenzothiazol-3-ium iodide]	–
400	7.5	Cc1ccc2sc(/C=C/c3ccc(N(C)C)cc3)[n+](C)c2c1 [Example 16, (E)-2-[2-(4-Dimethylaminophenyl)vinyl]-3,5-dimethylbenzothiazol-3-ium iodide]	–
160	40	CCCCCCC[n+]1c(/C=C/c2ccc(N(C)C)c3ccccc23)sc2ccccc21 [Example 39, (E)-2-[2-(4-Dimethylaminonaphthalen-1-yl)vinyl]-3-heptylbenzothiazol-3-ium iodide]	–
210	41	CN(C)c1ccc(/C=C/c2sc3c4ccccc4ccc3[n+]2C)cc1 [Example 24, (E)-2-[2-(4-Dimethylaminophenyl)vinyl]-3-methylnaphtho[2,1-d]thiazol-3-ium iodide]	–
180	6	Cc1ccc2c(c1)sc(/C=C/c1ccc(N(C)C)cc1)[n+]2C [Example 17, (E)-2-[2-(4-Dimethylaminophenyl)vinyl]-3,6-dimethylbenzothiazol-3-ium iodide]	–
430	26	COc1ccc2c(c1)sc(/C=C/c1ccc(N(C)C)c3ccccc13)[n+]2C [Example 41, (E)-2-[2-(4-Dimethylaminonaphthalen-1-yl)vinyl]-6-methoxy-3-methylbenzothiazol-3-ium iodide]	–
460	210	CN(C)c1ccc(/C=C/c2sc3ccccc3[n+]2CCCC(c2ccccc2)c2ccccc2)cc1 [Example 33, (E)-2-[2-(4-Dimethylaminophenyl)vinyl]-3-(4,4-diphenylbutyl)benzothiazol-3-ium iodide]	–
2500	340	COc1ccc2nc(/N=N/c3ccc(N(C)C)c4ccccc34)sc2c1 [Example 51, [4-(6-Methoxybenzothiazol-2-ylazo)naphthalen-1-yl]dimethylamine]	–
170	80	CN(C)c1ccc(/C=C/c2sc3ccccc3[n+]2CCCCCOc2ccccc2)cc1 [Example 37, (E)-2-[2-(4-Dimethylaminophenyl)vinyl]-3-(5-phenoxypentyl)benzothiazol-3-ium iodide]	–
430	5.2	CN(C)c1ccc(/C=C/c2sc3ccc(Cl)cc3[n+]2C)cc1 [Example 13, (E)-5-Chloro-2-[2-(4-dimethylaminophenyl)vinyl]-3-methylbenzothiazol-3-ium iodide]	–
120	110	Nc1ccc(/N=N/c2nc3ccccc3s2)c2ccccc12 [Example 48, 4-(Benzothiazol-2-ylazo)naphthalen-1-ylamine]	–
410	10	COc1ccc2c(c1)sc(N=Nc1ccc(N(C)C)cc1)[n+]2C [Example 53, 2-[[4-(Dimethylamino)phenyl]azo]-6-methoxy-3-methylbenzothiazol-3-ium methylsulfate]	–
120	52	CN(C)c1ccc(/C=C/c2sc3ccccc3[n+]2CCC2CCCCC2)cc1 [Example 38, (E)-3-(2-Cyclohexylethyl)-2-[2-(4-dimethylaminophenyl)vinyl]benzothiazol-3-ium iodide]	–

SMILES	IC50 [1, 3] [nM]	IC50 [2] [nM]	IC50 [1] [nM]
CN(C)c1ccc(/C=C/c2sc3cc([N+](=O)[O-])ccc3[n+]2C)cc1 [Example 21, (E)-2-[2-(4-Dimethylaminophenyl)vinyl]-3-methyl-6-nitrobenzothiazol-3-ium toluene-4-sulfonate]	1000	12	–
CCn1c(/C=C/c2ccc(N(C)C)cc2)[s+]c2ccc3ccccc3c21 [Example 22, (E)-2-[2-(4-Dimethylaminophenyl)vinyl]-1-ethylnaphtho[1,2-d]thiazol-3-ium toluene-4-sulfonate]	210	41	–
CN(C)c1ccc(/C=C/c2sc3ccc(F)cc3[n+]2Cc2ccccc2)cc1 [Example 15, (E)-2-[2-(4-Dimethylaminophenyl)vinyl]-3-benzyl-5-fluorobenzothiazol-3-ium bromide]	–	32	170
CN(C)c1ccc(/C=C/c2sc3ccccc3[n+]2Cc2ccccc2)cc1 [Example 6, (E)-3-Benzyl-2-[2-(4-dimethylaminophenyl)vinyl]benzothiazol-3-ium bromide]	–	12	110
CN(C)c1ccc(/C=C/c2sc3ccccc3[n+]2Cc2cccc(Oc3ccccc3)c2)cc1 [Example 30, (E)-2-[2-(4-Dimethylaminophenyl)vinyl]-3-(3-phenoxybenzyl)benzothiazol-3-ium bromide]	–	180	120
CN(C)c1ccc(/C=C/c2sc3ccccc3[n+]2Cc2ccc3ccccc3c2)cc1 [Example 27, (E)-2-[2-(4-Dimethylaminophenyl)vinyl]-3-naphthalen-2-ylmethylbenzothiazol-3-ium bromide]	–	13	120
CN(C)c1ccc(/C=C/c2sc3ccc4ccccc4c3[n+]2C)c2ccccc12 [Example 42, (E)-2-[2-(4-Dimethylaminonaphthalen-1-yl)vinyl]-1-methylnaphtho[1,2-d]thiazol-1-ium toluene-4-sulfonate]	250	42	–
Cc1ccc2c(c1)sc(/C=C/c1ccc(N(C)C)cc1)[n+]2Cc1ccccc1 [Example 18, (E)-3-Benzyl-2-[2-(4-dimethylaminophenyl)vinyl]-6-methylbenzothiazol-3-ium bromide]	–	50	130
CN(C)c1ccc(/C=C/c2sc3ccccc3[n+]2Cc2ccc(F)cc2)cc1 [Example 25, (E)-2-[2-(4-Dimethylaminophenyl)vinyl]-3-(4-fluorobenzyl)benzothiazol-3-ium bromide]	–	42	120
C=CC[n+]1c(/C=C/c2ccc(N(C)C)cc2)sc2ccccc21 [Example 10, (E)-2-[2-(4-Dimethylaminophenyl)vinyl]-3-allylbenzothiazol-3-ium bromide]	–	12	300
